Data taken from patent US8440617B2, “Hyperbaric treatment in wound healing” (The Trustees of the University of Pennsylvania, priority 2007, dated 2013).
“Also recorded” adds a separate entry of the source.

Columns and labels:
Assay type in all cases: in vivo, mouse
[1] = tested on: NO synthesis in bone marrow (NOS); test: Real-time bone marrow NO measurement with NO microelectrode during HBO; settings: diabetic mice, insulin 6 U/kg twice/d i.p.
Description: For HBO treatment, mice were placed in an animal hyperbaric chamber (Reneau Corp.) and subjected to 100% oxygen at 2.4 atmospheres absolute (ATA) for 90 min (Davis Wound Healing Protocol). To measure continuous, real-time BM NO levels, NO microelectrodes was inserted into the femoral marrow cavity as previously described. An osteotomy was created on the patellar surface of the murine femur using a 25 G beveled needle, allowing the electrode to be lowered into the marrow space when the animal was placed in the hyperbaric chamber. In some mice, pretreatment with L-NAME (40 mg/kg i.p.) (Sigma-Aldrich) was given 2 h prior to exposure to HBO.
In early studies, it was hypothesized that HBO2 augments stem cell mobilization because it stimulates •NO synthesis in the bone marrow, as •NO is known to play a central role with stem cell release from bone marrow. […] Mice were placed in a hyperbaric chamber where, while breathing air, baseline measurements were obtained. The chamber was then flushed with 100% O2 and compressed to 2.4 ATA O2.
Physiologically, the NO-mediated EPC release into circulation occurs in response to tissue-level hypoxia, although this compensatory response is inadequate in the setting of diabetes and results in severe defects in neovascularization and wound healing. […] Therefore, it was sought to utilize HBO as a tool to augment EPC release into circulation and further study both EPC mobilization and wound-homing mechanisms in the presence of diabetes. The goal was to determine whether hyperoxia stimulates NO production in the BM of diabetic mice via a NOS-mediated pathway and whether this pathway is impaired in diabetes. To test this hypothesis, Nafion polymer—coated NO microsensors were inserted into the femur BM space of both STZ induced diabetic and nondiabetic mice to measure real-time NO levels within the BM prior to and is during HBO-induced hyperoxia. […] It was speculated, that this was likely due to a compensatory effect from other NOS isoforms, and therefore the level of both iNOS and nNOS was examined in diabetic mice. […] However, no observation was made of any changes in the phosphorylation of these NOS isoforms.

[2] = tested on: diabetic cutaneous wounds; test: Peripheral wound healing (wound closure) in diabetic mice
Description: Tie2-GFP, wild-type or chimeric FVB mice at 6-12 wk of age were treated with STZ (Sigma-Aldrich) to induce diabetes. Mice were rendered diabetic by i.p. administration of 60 mg/kg STZ in 50 mM sodium citrate, pH 4.5, daily for 5 d. Control mice were treated with daily injections of citrate buffer. Serum glucose was measured from the mouse tail vein using a glucometer. Once serum glucose reached 250 mg/dL, mice were followed with daily measurements for 1 wk prior to use in experiments. Serum glucose levels in STZ mice averaged 461 mg/dL with a range of 372-520 mg/dL, while control mice serum glucose mean level was 120 mg/dL with a range of 94-135 mg/dL. Wounds were induced on the ventral surface of the mouse thigh using a 4 mm punch biopsy. Full-thickness skin was removed, exposing the underlying muscle.
Initial wound surface area was recorded and wounds were then followed serially with daily digital photographs using an Olympus digital camera. Photographs contained an internal scale to allow for standard calibration of measurements. Wound area was quantified using ImageJ software. Wound area was expressed as the percentage of original wound size. Wounds were followed for 6 d and mice were sacrificed at the conclusion of the experiment.
EPCs play a key role in vasculogenesis and cutaneous tissue repair. It was hypothesized that increased numbers of EPCs in circulation, along with enhanced EPC homing to wounds, results in improved wound healing in diabetes. Diabetic wound closure rates were studied, in response to treatment with HBO and SDF-1α alone and in combination. Wounded diabetic mice underwent daily wound injections with SDF-1α, PBS, HBO, or SDF-1α+HBO treatments. […] This healing response was greater than the response to either treatment modality alone. In addition, histochemical analysis was conducted to examine blood vessel density (VEGFR2 staining), cellularity and stromagenesis (H&E staining), and extracellular constitution (trichrome staining) in wound tissues. […]

SDF-1α in wound tissue = test: Wound SDF-1α level (immunostaining); settings: diabetic mice treated with insulin
Excerpt: For immunostaining, paraffin embedded serial sections (5 μm) were first underwent standard deparaffinizing and rehydration procedures and then probed with various Abs. To assess wound SDF-1α^+ cells, sections were double-stained with HTC-conjugated anti-SDF-1α and PE-conjugated different tissue-specific Abs (eBiosciences). To detect blood vessels in wound, sections were stained with HTC-conjugated anti-VEGFR2Ab. For examination of wound EPC recruitment in BM transplantation experiment, sections were double-stained with FITC-GFP and PE-VEGFR2 (BD Biosciences). Nuclei were counterstained with Hoescht dye. Masson's trichrome staining and H&E staining were performed using standard method and all reagents were from Sigma-Aldrich. Tissue sections were analyzed using fluorescence microscopy and ImageJ (NIH) software to quantitate fluorescent intensity. In trichrome stained slides, blue stain (collagen content) was also quantitatively analyzed by ImageJ.

BM eNOS phosphorylation = test: Western blot of bone marrow eNOS and phospho-eNOS; settings: diabetic mice treated with insulin
Description: Isolation of whole BM from FVB/NJ mice (n=12/group) was obtained by flushing harvested femurs and tibias with PBS/2% FBS. Red blood cells were removed by Red Cell Lysis Buffer (Sigma-Aldrich). Isolated BM cells were then lysed and protein concentrations were determined by DC protein assay (Bio-Rad Laboratories). Equal amounts of protein were subjected to 4-12% SDS gel electrophoresis under reducing conditions. The transferred PVDF membranes were probed with primary Ab (anti-eNOS and anti-phospho-eNOS (Ser^1177) (BD Biosciences) diluted 1:500 in 1% milk in TBST buffer and then incubated with HRP-conjugated second Ab (DakoCytomation Inc.). Proteins were visualized using enhanced chemiluminescence (Amersham Bioscience).
In diabetic patients, circulating EPCs are decreased in both number and function, and so it was hypothesized that BM eNOS activation is impaired in diabetes. To examine this question, BM was isolated from streptozocin-induced (STZ-induced) diabetic and nondiabetic mice and analyzed via Western blot for levels of total and phosphorylated eNOS protein. Although no changes in the amount of total eNOS protein were observed, the levels of biologically active phosphorylated eNOS protein were decreased in diabetic mice as compared with nondiabetic controls (FIG. 12A). […]

insulin: human insulin (NPH), 6 U/kg twice/d i.p.
reversal of impaired BM NO production [1]: little effect
reversal of impaired BM NO production ([1]; listed as Insulin): did not reverse
wound healing rate, insulin combined with HBO+SDF-1α therapy ([2]; diabetic mice): did not further accelerate
wound healing rates ([2]; diabetic mice treated with insulin 6 U/kg twice/d i.p.): failed to improve; also recorded: Little effect
impaired wound SDF-1α production (SDF-1α in wound tissue): failed to improve
reversal of impaired BM eNOS phosphorylation (BM eNOS phosphorylation): little effect
reversal of impaired BM eNOS phosphorylation (BM eNOS phosphorylation; listed as Insulin): failed to restore
